The values below come from US5942641A, “Fluorenone derivatives, process for preparing the same and central or peripheral nerve degeneration repair and protective agent” (Otsuka Pharmaceutical Co., Ltd., priority 1993, dated 1999).

In test [1] the test system is Nerve cells of the cerebral cortex. Put plainly: Pharmacological test 1: neurite sprouting (NS) of cultured fetal rat cerebral cortex nerve cells, phase contrast microscopy versus control. Type of test: cell-based. More on the design: key: ++: extremely strong in comparison with the control; +: strong in comparison with the control; ±: same as the control; -: inferior to the control. The following applies: 10 days after initiation of culture. The text has this:
Nerve cells of the cerebral cortex were removed aseptically from a fetal rat (17 days-old) and cultured according to a Asou's method [Asou, H. Brain Res., 332; pages 355-357 (1985)]. After the meninx, blood vessel, etc. were removed from the cerebral hemisphere, they were put through a stainless steel mesh (pore size: 140μm). Then, the isolated cells were floated on a culture medium (Eagle's basal medium containing 10% fetal bovine serum and glucose of 1 g/l) and 1.5×10^6 cells were respectively seeded on a dish (diameter: 35 mm) coated with poly-L-lysine to initiate the culture (37° C., 3% CO2). After 24 hours, the culture medium was replaced by a culture medium containing a test compound and cultured for additional 9 days.
10 Days after initiation of the culture, neurite sprouting (NS) was evaluated under phase contrast microscopy by comparing with the control group.

The test system of test [2] is mouse dorsal root ganglion cells. The test is described as follows: Pharmacological Test 2: neurite outgrowth in primary culture of mouse dorsal root ganglion cells. Type of test: cell-based, mouse (C57BL/6). More on the design: key: +: positive; ±: false positive; -: negative. The conditions noted are these: 7 days culture. The method, then: (The measurement of neurite outgrowth in primary culture of mouse dorsal root ganglion cells)
Preparation of cells was conducted according to a method of Horie et al. [H. Horie., FEBS, 296, 23 (1990)]. That is, C57BL/6 male mice aged 10 to 15 weeks were used. They were bleeded to death under ether anesthetization and the backbone from cervical vertebra to sacral vertebra was removed. The capsule of dorsal root ganglion of which ventral root and dorsal root had been cut was stripped in a Ham F12 medium (Flow laboratories) and then ganglia were treated with 0.25% collagenase (Worthington Biochemical Corporation) at 37° C. for 90 minutes. The medium was replaced by a Hank's physiological buffer solution containing no calcium and magnesium and cells were treated with 0.25% trypsin (Flow Laboratories) at room temperature for 20 minutes. A trypsin inhibitor (Sigma, 100 μg/ml) was added to terminate the enzyme reaction and trituration was conducted 20 times using a tapered Pasteur pipette. The medium was replaced again by the Ham F12 medium and cells were put through a nylon mesh (150 μm) to remove a cell mass which had not been separated. Cells were suspended in the Ham F12 medium containing a N1 additive [Bottenstein, J. E., Exp. Cell. Res., 125, 183 (1980)] (kanamycin of 60 μg/ml added).
A poly-1-lysine-coating cell disc as a culture medium which had been subjected to 10 μg/ml laminin (Koken Cell Gen) coating treatment at 37° C. for 3 hours was placed on a 24 well dish and nerve cells (5000 to 10000 cells/dish) were seeded. The test compound (concentration: 0.01 mol/l) was dissolved in dimethyl sulfoxide and diluted with a phosphate buffer solution to adjust to a final concentration, and then added to a culture solution. Cells were cultured in 5% CO2 -95% air phase at 37° C. for 7 days.
For the measurement of neurite outgrowth, the cell disc was washed with a phosphate buffer solution 7 days after initiation of the culture and immobilized with 4% paraformaldehyde at 4° C. for 24 hours, and then immune staining was conducted with Vecstatin ABC kit (Vector) using a neurofilament antibody (200 kD, manufactured by Boehringer Mannheim GmbH). The periphery of the cell disc was restrictively observed under microscopy, and the amount of neurofilament (whole length per well) was evaluated by comparing with the control well according to the following criteria: positive (+), false positive (±) and negative (-).

Turning to `C=CCc1cc(C)c2c(c1O)C(=O)c1ccccc1-2` [Example 11], the “neurite sprouting (NS)” value in test [1] (Dose 10^-5 (mole)) was “+”.

For `C=CCc1cc2c(cc1O)C(=O)c1c-2ccc(CC=C)c1O` [Example 14], the “neurite sprouting (NS)” value in test [1] (Dose 10^-7 (mole)) is reported as “++”.

`C=CCc1cc2c(c(CC=C)c1O)C(=O)c1c(O)c(CC=C)cc(CC=C)c1-2` [Example 16]: the “neurite sprouting (NS)” value in test [1] (Dose 10^-7 (mole)) is on record as “+”.

In the case of `C=CCc1c(O)ccc2c1C(=O)c1ccccc1-2` [Example 17], in test [1] (Dose 10^-5 (mole)), the “neurite sprouting (NS)” value is “++”. Also, the Neurite outgrowth action result in test [2] (Dose 10^-6 (mole)) was “+”.

Turning to `C=CCc1cc2c(cc1O)C(=O)c1ccccc1-2` [Example 18], the “neurite sprouting (NS)” value in test [1] (Dose 10^-5 (mole)) is given as “++”. Further, the Neurite outgrowth action entry in test [2] (Dose 10^-6 (mole)) is reported as “+”.

Regarding `C=CCc1cc2c(c(CC=C)c1O)C(=O)c1ccccc1-2` [Example 19], in test [1] (Dose 10^-5 (mole)), the “neurite sprouting (NS)” value is listed as “++”. The Neurite outgrowth action entry in test [2] (Dose 10^-7 (mole)) is reported as “+”.

Turning to `O=C1c2ccccc2-c2cc(O)c(O)cc21` [Example 20, 2,3-dihydroxyfluorenone], the Neurite outgrowth action entry in test [2] (Dose 10^-6 (mole)) is “+”.

Take `CCCc1c(O)c(O)c(CCC)c2c1C(=O)c1ccccc1-2` [Example 22, 1,4-di-n-propyl-2,3-dihydroxyfluorenone]: in test [2] (Dose 10^-7 (mole)), the Neurite outgrowth action entry is recorded as “+”.

`O=C1c2cc(O)ccc2-c2c(O)cccc21` [Example 26]: in test [1] (Dose 10^-7 (mole)), the “neurite sprouting (NS)” value is given as “+”. For the same compound, in test [2] (Dose 10^-7 (mole)), the Neurite outgrowth action result was “+”.

Consider `C=CCc1ccc(O)c2c1C(=O)c1c-2ccc(O)c1CC=C` [Example 28], for which the “neurite sprouting (NS)” value in test [1] (Dose 10^-5 (mole)) is reported as “++”.

For the compound `C=CCc1cc2c(cc1O)C(=O)c1ccc(CC=C)c(O)c1-2` [Example 29], the Neurite outgrowth action entry in test [2] (Dose 10^-7 (mole)) is listed as “+”.

`C=CCc1cc2c(cc1O)C(=O)c1c(CC=C)ccc(O)c1-2` [Example 30]: in test [2] (Dose 10^-7 (mole)), the Neurite outgrowth action result is on record as “+”.

For `CCCc1cc2c(c(CCC)c1O)C(=O)c1c(CCC)cc(CCC)c(O)c1-2` [Example 32], the Neurite outgrowth action entry in test [2] (Dose 3 × 10^-8 (mole)) is “+”.

As for `C=CCc1cc(Cl)c2c(c1O)-c1cc(Cl)c(O)c(CC=C)c1C2=O` [Example 33], the Neurite outgrowth action entry in test [2] (Dose 10^-7 (mole)) is listed as “+”.

Take `C=CCc1cc(Cl)c(O)c2c1C(=O)c1c-2cc(Cl)c(O)c1CC=C` [Example 34]: the Neurite outgrowth action result in test [2] (Dose 10^-7 (mole)) is “+”.

Turning to `C=CCc1cc2c(cc1O)C(=O)c1cccc(O)c1-2` [Example 35], the “neurite sprouting (NS)” value in test [1] (Dose 10^-7 (mole)) is recorded as “+”.

For `COc1cccc2c1-c1cc(C(C)C)c(O)cc1C2=O` [Example 36], in test [2] (Dose 10^-6 (mole)), the Neurite outgrowth action entry is listed as “+”.

Turning to `O=C1c2cc(O)ccc2-c2cc(O)ccc21` [Example 40], the “neurite sprouting (NS)” value in test [1] (Dose 10^-5 (mole)) is “++”. Besides, the Neurite outgrowth action entry in test [2] (Dose 10^-6 (mole)) is given as “+”.

For `C=CCc1c(O)ccc2c1C(=O)c1ccc(O)c(CC=C)c1-2` [Example 41], the Neurite outgrowth action result in test [2] (Dose 10^-7 (mole)) was “+”.

`C=CCc1cc2c(cc1O)-c1cc(CC=C)c(O)cc1C2=O` [Example 44]: the Neurite outgrowth action entry in test [2] (Dose 10^-7 (mole)) is on record as “+”.

Turning to `C=CCc1cc2c(c(CC=C)c1O)C(=O)c1cc(CC=C)c(O)c(CC=C)c1-2` [Example 45], in test [1] (Dose 10^-7 (mole)), the “neurite sprouting (NS)” value was “+”. The Neurite outgrowth action entry in test [2] (Dose 10^-7 (mole)) is given as “+”.

For the compound `C=CCc1c(O)ccc2c1C(=O)c1c-2ccc(O)c1CC=C` [Example 48], the “neurite sprouting (NS)” value in test [1] (Dose 10^-6 (mole)) is given as “+”. Also, the Neurite outgrowth action entry in test [2] (Dose 10^-7 (mole)) is recorded as “+”.

In the case of `C=CCc1cc2c(c(CC=C)c1O)C(=O)c1c-2cc(CC=C)c(O)c1CC=C` [Example 50], the Neurite outgrowth action entry in test [2] (Dose 10^-7 (mole)) was “+”.

As for `CCCc1cc2c(c(CCC)c1O)C(=O)c1c-2cc(CCC)c(O)c1CCC` [Example 53], in test [2] (Dose 10^-7 (mole)), the Neurite outgrowth action result is “+”.

As to `CCCc1cc2c(c(Cl)c1O)C(=O)c1c-2cc(Cl)c(O)c1CCC` [Example 54, 3,8-dichloro-1,6-di-n-propyl-2,7-dihydroxyfluorenone], in test [2] (Dose 10^-7 (mole)), the Neurite outgrowth action result is “+”.

Regarding `C=CCc1cc2c(c(CC=C)c1O)-c1ccccc1C2=O` [Example 60], the “neurite sprouting (NS)” value in test [1] (Dose 10^-7 (mole)) was “+”. For the same compound, the Neurite outgrowth action result in test [2] (Dose 10^-6 (mole)) is given as “+”.

Take `C=CCc1ccc(O)c2c1C(=O)c1ccccc1-2` [Example 61]: the “neurite sprouting (NS)” value in test [1] (Dose 10^-5 (mole)) is listed as “++”.

Take `C=CCc1ccc2c(c1O)-c1ccccc1C2=O` [Example 62]: the “neurite sprouting (NS)” value in test [1] (Dose 10^-6 (mole)) is recorded as “++”. Further, in test [2] (Dose 10^-6 (mole)), the Neurite outgrowth action result is reported as “+”.

Consider `CSc1ccc(O)c2c1C(=O)c1ccccc1-2` [Example 63], for which, in test [2] (Dose 10^-6 (mole)), the Neurite outgrowth action entry was “+”.

As to `C=CCc1cc(SC)c2c(c1O)-c1ccccc1C2=O` [Example 64], the Neurite outgrowth action result in test [2] (Dose 10^-6 (mole)) is reported as “+”.

With `C=CCc1cc2c(cc1OC(C)=O)C(=O)c1c-2ccc(OC(C)=O)c1CC=C` [Example 106, 1,6-diallyl-2,7-diacetoxyfluorenone], the Neurite outgrowth action result in test [2] (Dose 10^-7 (mole)) was “+”.

As to `Cc1cc2c(c(C)c1O)C(=O)c1ccc(C)c(O)c1-2` [Example 118, 1,3,6-trimethyl-2,5-dihydroxyfluorenone], in test [2] (Dose 3 × 10^-7 (mole)), the Neurite outgrowth action result is reported as “+”.

For the compound `Cc1cc2c(c(C)c1O)C(=O)c1ccc(CNc3ncccn3)c(O)c1-2` [Example 123], the Neurite outgrowth action entry in test [2] (Dose 10^-7 (mole)) is on record as “+”.

As to `CCCc1ccc2c(c1O)-c1cc(CNc3ncccn3)c(O)c(CCC)c1C2=O` [Example 127], the Neurite outgrowth action entry in test [2] (Dose 10^-7 (mole)) is reported as “+”.

For `CCCc1ccc2c(c1O)-c1cc(CNC(CC(C)C)C(=O)OC)c(O)c(CCC)c1C2=O` (stereo not drawn) [Example 131], the Neurite outgrowth action result in test [2] (Dose 10^-7 (mole)) was “+”.

Turning to `CCCc1ccc2c(c1O)-c1cc(CN3CCC[C@H]3C(=O)OC)c(O)c(CCC)c1C2=O` [Example 132], the Neurite outgrowth action result in test [2] (Dose 10^-7 (mole)) is on record as “+”.

On to `CCCc1cc2c(c(CCC)c1OC(C)=O)C(=O)c1c(CCC)cc(CCC)c(OC(C)=O)c1-2` [Example 134], for which, in test [2] (Dose 3 × 10^-8 (mole)), the Neurite outgrowth action result is “+”.

On to `Cc1cc2c(c(C)c1O)C(=O)c1ccc(CSc3ccccc3)c(O)c1-2` [Example 136], for which the Neurite outgrowth action result in test [2] (Dose 3 × 10^-7 (mole)) is “+”.

As for `COc1ccc(SCc2ccc3c(c2O)-c2cc(C)c(O)c(C)c2C3=O)cc1` [Example 141], the Neurite outgrowth action entry in test [2] (Dose 3 × 10^-8 (mole)) is on record as “+”.

On to `Cc1cc2c(c(C)c1O)C(=O)c1ccc(CSC3CCCCC3)c(O)c1-2` [Example 142], for which the Neurite outgrowth action entry in test [2] (Dose 3 × 10^-8 (mole)) is given as “+”.

For the compound `CCCc1cc2c(c(CC(C)OCCOCCO)c1O)C(=O)c1c(CCC)cc(CCC)c(O)c1-2` (stereo not drawn) [Example 143], the Neurite outgrowth action result in test [2] (Dose 10^-7 (mole)) is “+”.

`Cc1cc2c(c(C)c1O)C(=O)c1ccc(CC#N)c(O)c1-2` [Example 144]: in test [2] (Dose 10^-7 (mole)), the Neurite outgrowth action entry is “+”.
